In patent publication US6207648A, “Methods of using cytochrome P450 reductase for the enhancement of P450-based anti-cancer gene therapy” (priority 1998, dated 2001):
“Also recorded” adds a separate entry of the source. Where two headings read alike, the source gives them in different places.

Legend:
9L/wt cells = experiment: Intrinsic chemosensitivity of 9L/wt cells to chemically activated CPA and IFA; format: cell-based, rat
Experimental: 9L/wt cells seeded at 2000 cells/ well in 48-well plates were treated for 3-4 hours with increasing concentrations of 4-hydroperoxy-CPA or 4-hydroxyperoxy-IFA (0 to 100 μM). Cells were then incubated in fresh drug-free media and allowed to grow for 4 days. Cell growth as a percent of drug-free controls was then determined by crystal violet staining. Data shown are mean±range for duplicate samples.
Briefly, culture dishes were washed once with phosphate buffered saline (PBS), stained for 10 minutes with crystal violet (1.25 g crystal violet (Sigma) dissolved in 500 ml containing 50 ml of 37% formaldehyde and 450 ml methanol), and then washed with PBS, twice for 20 minutes per wash. Absorbance values were measured in an SLT Spectra microtiter plate reader using a 595 nm filter. Background absorbance determined from wells containing culture media alone was subtracted from each value.

[1] = system: 9L gliosarcoma cells (parental, CYP2B1+, CYP2B1+ RED+++); experiment: In vitro growth inhibition assay, XTT (Example 1); conditions: for increase of cell survival ratio in CYP2B1+ RED+++ cells / rescue of CYP2B1+ and CYP2B1+ RED+++ cells from CPA toxicity: 1 mM CPA, AADP 0.5 mM or DPI 5 μM; for rescue of CYP2B1+ and CYP2B1+ RED+++ cells from CPA toxicity: FIG. 4
Experimental: Cells (1000/well) seeded in 96-well plates were treated with the indicated concentrations of CPA for 4 days. Corresponding controls received no drug treatment. Cell survival was determined by an XTT calorimetric assay. Data (mean for triplicate samples) were expressed as growth ratio (%), i. e., cell number (XTT activity) in drug treated plates as a percentage of the corresponding drug-free controls.
Cells (500/well) seeded in 96-well plates were treated with 1 mM cyclophosphamide in the absence or presence of the RED inhibitors AADP (0.5 mM) or DPI (5 μM). Corresponding controls received no drug treatment. Cell survival was determined by an XTT colorimetric assay. Data (mean for triplicate samples) are expressed as growth ratio (%), i.e., cell number (XTT activity) in drug treated plates as a percentage of the corresponding drug-free controls and are representative of 2-3 independent experiments. AADP and DPI were added to the cells 30 minutes prior to CPA treatment.
(B) Growth inhibition assay--Cells (1000/well) seeded in 96 well plates were treated with the indicated concentrations of CPA for 4-5 days. Corresponding controls received no drug treatment. Cell survival was determined by an XTT colorimetric assay, a cell proliferation assay that measures mitochondrial dehydrogenase activity of viable cells (Scudiero, D. A., et al., Cancer Res. 48:4827-4833 (1988)).

[2] = system: 9L, 9L/2B1 and 9L/2B1/RED cells; experiment: Adriamycin growth inhibition assay; format: cell-based, rat
Experimental: The indicated 9L, 9L/2B1 and 9L/2B1/RED clonal cell lines, described in Example 1, were treated with Adriamycin for 2 days at the indicated drug concentrations. Cytotoxicity was measured after 5 days continuous culture using a growth inhibition assay, as described under FIG. 2B of Example 1. […] Data shown are averages of duplicates.
(§1) Corresponding controls received no drug treatment.
9L gliosarcoma cell lines stably expressing rat P450 2B1 and rat RED: The following rat 9L gliosarcoma transfectants were those already described in Example 1: P3 and P17, which stably express P450 gene CYP2B1; 9L-lacZ, which stably expresses the E. coli β-galactosidase gene; R26, which stably expresses rat RED but not P450; and PR1, PR7, PR11, which stably express rat P450 2B1 and rat RED.

[3] = in vivo; cited from earlier work
9L/pBabe bystander cells = experiment: Bystander cytotoxicity/co-culture with cell culture inserts; format: cell-based, rat; conditions: Rattus norvegicus, 96 h, 9L/2B6/reductase, 0.67 mM
Experimental: FIGS. 18A and 18B are graphs depicting the bystander cytotoxicity of 9L/2B6/reductase and 9L/2B6 cells. In FIG. 18A, bystander cytotoxicity of 9L/2B6/reductase cells is compared to that of 9L/2B6 cells. In both cases, 9L/pBabe served as the bystander cells. 9L/pBabe cells were plated in duplicate at 10^5 cells/well of a 6-well plate (lower chamber). 9L/2B6/reductase cells or 9L/2B6 cells were plated in 25 mm cell culture inserts (upper chamber) at concentrations ranging from 10^4 to 6×10^5 cells, corresponding to ratios of 0.1 to 6 relative to the bystander 9L/pBabe cells growing in the lower chamber, as shown on the x-axis. Cells were incubated in a total volume of 3 ml Dulbecco's minimal essential medium (DMEM), 10% FBS, containing 1 mM CPA, final CPA concentration.
The experimental design was the same as in FIG. 18A, except that the final drug concentration was 0.67 mM. Data shown for both panels correspond to the survival of 9L/pBabe bystander cells in the lower chamber.
Bystander cytotoxicity/co-culture experiments: 9L/pBabe cells were plated in duplicate at 10^5 cells/well in the lower chamber of a 6-well Falcon co-culture plate (30 mm diameter wells) (Falcon 3046). 9L/2B6/reductase cells were plated in 25 mm cell culture inserts (0.4 μm pore size; Falcon 3090), at dilutions ranging from 0. 1 to 6 times the number of 9L/pBabe cells plated in the lower chamber. […] Relative cell numbers were quantitated 4 days later by crystal violet staining.

human cytochrome P450s = conditions: cited from earlier work
[4] = system: 9L/pBabe, 9L/2B6, 9L/hRED and 9L/2B6/hRED gliosarcoma cells
Experimental: Cells were seeded at 4000 cells/well in 48-well plates and treated with increasing concentrations of CPA for 4 days. Cell growth in comparison to drug-free controls was determined by crystal violet staining and is presented as mean±SD for n=3 replicates.
FIG. 21 is a graph depicting the cytotoxic effects of the bioreductive drug TPZ toward 9L/pBabe control cells and 9L cells transduced with retroviruses encoding human RED and/or P450 2B6 under normoxic culture conditions. Cells were seeded at 4000 cells/well in 48-well plates and treated with increasing concentrations of TPZ for 4 days. Cell growth in comparison to drug-free controls was determined by crystal violet staining and is presented as mean±SD for n=3 replicates.
FIG. 22 is a graph depicting the cytotoxicity of increasing concentrations of TPZ under hypoxic conditions (1% O2) toward 9L tumor cells transduced with retroviruses encoding P450 2B6 and/or human RED. 9L/pBabe cells served as controls. Cells were seeded at 4000 cells/well in 48-well plates and treated with increasing concentrations of TPZ for 4 days. Cell growth in comparison to drug-free controls was determined by crystal violet staining and is presented as mean±SD for n=3 replicates.
FIGS. 24A, 24B and 24C are graphs depicting the cytotoxic effects of TPZ (5 or 10 μM, as indicated) in combination with increasing concentrations of CPA under normoxic culture conditions (19.6% O2, 5% CO2). The data shown were obtained using 9L/2B6/hRED cells (FIG. 24A), 9L/hRED cells (FIG. 24B) and 9L/pBabe (control) cells (FIG. 24C). Data were compared to the cytotoxicity of increasing concentrations of CPA alone (i. e., in the absence of TPZ) measured using the same pools of tumor cells. Cells were seeded at 4000 cells/well in 48-well plates and then treated with the indicated drug concentrations for 4 days. Cell growth in comparison to drug-free controls (i.e., in the absence of CPA and TPZ) was determined by crystal violet staining and is presented as mean±SD for n=3 replicates.
FIGS. 25A, 25B and 25C are graphs depicting the cytotoxic effects of TPZ (0.5 or 1.5 μM, as indicated) in combination with increasing concentrations of CPA under hypoxic culture conditions (1% O2, 5% CO2). The data shown were obtained using 9L/2B6/hRED cells (FIG. 25A), 9L/hRED cells (FIG. 25B) and 9L/pBabe (control) cells (FIG. 25C). Data were compared to the cytotoxicity of increasing concentrations of CPA alone (i.e., in the absence of TPZ) measured using the same pools of tumor cells. Cells were seeded at 4000 cells/well in 48-well plates and then treated with the indicated drug concentrations for 4 days. Cell growth in comparison to drug-free controls (i.e., in the absence of CPA and TPZ) was determined by crystal violet staining and is presented as mean±SD for n=3 replicates.
Cytotoxicity assays: To evaluate the chemosensitivity of the P450- and P450/RED-expressing 9L tumor cells, cells were plated in triplicate at 4000 cells/well of a 48-well plate 18-24 hours prior to drug treatment. Cells were then treated with drugs (0 to 1 mM CPA or 0 to 50 μM TPZ, as indicated in each experiment) and placed in a tissue culture incubator maintained under hypoxic conditions (1% O2, 5% CO2, 94% N2) or under normoxic conditions (19.6% O2, 5% CO2, 75.4% N2) for a period of 4 days. 9L/pBabe cells, which were transduced with the empty retroviral plasmid pBabe-puro (see, Example 2), served as controls. Cells remaining after this time were quantitated using a crystal violet/alcohol-extraction assay, as described under Example 2. Data are presented as cell number relative to drug-free controls, mean±SD values for triplicate samples, unless indicated otherwise.

[5] = system: rodent and human tumor xenograft models; conditions: cited from earlier work
[6] = system: 9L gliosarcoma cells (parental, CYP2B1+, CYP2B1+ RED+++); experiment: In vitro colony formation cytotoxicity assay (Example 1); format: cell-based, rat; conditions: FIG. 3A
Description: FIGS. 2A and 2C depict the results of a colony formation cytotoxicity assay.
FIG. 3A depicts results from a colony formation cytotoxicity assay. […] The survival fraction is expressed as the number of colonies in each treatment group compared to the untreated control.
as §1

9L tumor cells = experiment: Control experiment: effect of semicarbazide on cell viability; format: cell-based, rat; conditions: 5 mM, up to 48 hours
P450 2C9 = conditions: cited from earlier work
CYP2C9 = conditions: subset of cancer patients; cited from earlier work

Structure (SMILES): O=P1(N(CCCl)CCCl)NC(OO)CCO1 (stereo not shown) [4-hydroperoxy-CPA]
- sensitivity of 9L cells to activated CPA compared to activated IFA (9L/wt cells; 0 to 100 μM, 3-4 h, 4 days regrowth): approximately 3 fold
- intrinsic sensitivity of 9L cells to activated CPA compared to activated IFA (9L/wt cells; FIG. 16): greater intrinsic sensitivity

Structure (SMILES): Nc1ccc[n+]([C@@H]2O[C@H](COP(=O)([O-])OP(=O)(O)OC[C@H]3O[C@@H](n4cnc5c(N)ncnc54)[C@H](O)[C@@H]3O)[C@@H](O)[C@H]2O)c1 [AADP, 3-aminopyridine adenine dinucleotide]
- toxicity to the cells in absence of CPA ([1]; 0.5 mM): no toxicity to the cells
- increase of cell survival ratio in CYP2B1+ RED+++ cells [1]: 2-3 fold
- rescue of CYP2B1+ and CYP2B1+ RED+++ cells from CPA toxicity [1]: partially rescued

Structure (SMILES): COc1cccc2c1C(=O)c1c(O)c3c(c(O)c1C2=O)C[C@@](O)(C(=O)CO)C[C@@H]3O[C@H]1C[C@H](N)[C@H](O)[C@H](C)O1 [Adriamycin, doxorubicin]
- toxicity to 9L and 9L/lacZ cells without P450 metabolism ([2]; 100 nM, 2 days): toxic to 9L cells
- effect of co-expression of RED with P450 2B1 on Adriamycin cytotoxicity ([2]; PR11 and PR7): large enhancement in Adriamycin cytotoxicity; also recorded: Enhanced cytotoxicity
- chemosensitization to Adriamycin in line PR1 ([2]; RED overexpression approximately 2-fold): more modest chemosensitization
- effect of RED overexpression alone on Adriamycin cytotoxicity ([2]; line R26): did not enhance the cytotoxicity

Structure (SMILES): c1ccc2c(c1)[I+]c1ccccc1-2 [DPI, diphenyleneiodonium chloride]
- increase of cell survival ratio in CYP2B1+ RED+++ cells [1]: 3-5 fold
- rescue of CYP2B1+ and CYP2B1+ RED+++ cells from CPA toxicity [1]: partially rescued
- inhibition at 5 µM ([1]; Rattus norvegicus, read-out: growth inhibition in absence of CPA): ~20%

Structure (SMILES): O=P1(NCCCl)OCCCN1CCCl (stereo not shown) [IFA, ifosfamide]
- side effects of systemic distribution of drug and alkylating metabolites [3]: cardiotoxicity, renal toxicity, marrow suppression, and neurotoxoxicity
- cytotoxicity at 670 µM (9L/pBabe bystander cells; cell ratio 6:1, read-out: maximum bystander cytotoxicity): ~50%
- cytotoxicity at 670 µM (9L/pBabe bystander cells; cell ratios up to 3:1, read-out: bystander cytotoxicity): ≤ 25%

Structure (SMILES): Clc1cnc(Oc2ccc(Oc3ncc(Cl)cc3Cl)cc2)c(Cl)c1 [TCPOBOP, 1,4-bis-2-(3,5-dichloropyridyloxybenzene)]
- induction of human cytochrome P450s in colon and breast tumors (human cytochrome P450s): profound inducer

Structure (SMILES): Nc1n[n+]([O-])c2ccccc2[n+]1[O-] [TPZ, 3-amino-1,2,4-benzotriazine-1,4-di-N-oxide]
- effect of P450 2B6 and RED on TPZ cytotoxicity [4]: substantial increase in cytotoxicity
- effect of P450 2B6 expression alone on TPZ cytotoxicity [4]: no effect on the cytotoxicity
- effect of P450 2B6 on TPZ cytotoxicity [4]: Some enhanced cytotoxicity
- effect of RED gene transfer on TPZ sensitivity [4]: chemosensitized 9L tumor cells
- effect of RED gene transfer, with or without P450 2B6, on TPZ cytotoxicity [4]: increase in TPZ cytotoxicity
- intrinsic cytotoxicity under hypoxic vs normoxic conditions [4]: intrinsically more cytotoxic
- effect of TPZ on activity of CPA and other cancer chemotherapeutics ([5]; in vivo): enhance the activity of CPA
- bone marrow toxicity with TPZ combination ([5]; with CPA and other chemotherapeutics): corresponding increase in bone marrow toxicity

Structure (SMILES): CC(C)(C(=O)c1cccnc1)c1cccnc1 [metyrapone]
- blocking of CPA cytotoxicity toward CYP2B1+ cells ([1]; 10 μM and higher, P3 and P17, FIG. 3): significantly blocked the cytotoxic effects
- inhibition of CPA cytotoxicity in RED-overexpressing CYP2B1+ cells ([1]; 10 μM, FIG. 3): only slightly inhibited the cytotoxic effect
- blocking of CPA cytotoxicity toward CYP2B1+ cells ([6]; 10 μM and higher, P3 and P17): significantly blocked the cytotoxic effects
- inhibition of CPA cytotoxicity in RED-overexpressing CYP2B1+ cells ([6]; 10 μM): only slightly inhibited the cytotoxic effect

Structure (SMILES): NNC(N)=O [semicarbazide]
- effect on cell viability (9L tumor cells): no detectable effect on cell viability

Structure (SMILES): Nc1ccc(S(=O)(=O)Nc2ccnn2-c2ccccc2)cc1 [sulfaphenazole]
- inhibition of P450 2C9-catalyzed human liver CPA activation (P450 2C9): inhibits P450 2C9-catalyzed human liver CPA activation
- effect on elimination of CPA (CYP2C9): slows the elimination of CPA
